System: stripped skin of volunteers (vasoconstriction / hyperemia)
Test: Vasoconstriction test on stripped skin of volunteers (topical ointment)
Format: in vivo, human (volunteers)
Procedure: The anti-inflammatory effectiveness of the novel benzimidazole derivatives can be determined in the conventional vasoconstriction test, as follows:
On the backs of volunteers for the experiment, the stratum corneum was removed by the application and tearing off of an adhesive strip, applied 20 times at the same spot, thus producing a pronounced hyperemia. Within the stripped area, respectively 50 mg. of ointment was applied to marked areas having a size of 4 cm^2, this ointment containing respectively 0.1, 0.01 or 0.001%, respectively, of the compound to be tested or of the reference substance in a water-oil base. […]
To determine the vasoconstriction, which is a representative syndrome of topical anti-inflammatory activity, the color value of the untreated skin and the treated stripped skin is measured and compared with the color value of the normal skin, with the color value of the normal skin being assigned the value 100 and the color value of the untreated stripped skin being assigned the value 0. Minor, medium, and high-grade vasoconstriction are evaluated with values between 0 and 100.
The results of such tests employing compounds of this invention (Compounds III and IV) and the prior art compounds Clemizole (I) and Flucortolone (II) are shown in Table I below.

[1] = 0.001% in ointment, observation time 1 hour
[2] = 0.001% in ointment, observation time 4 hours
[3] = 0.001% in ointment, observation time 8 hours
[4] = 0.01% in ointment, observation time 1 hour
[5] = 0.01% in ointment, observation time 4 hours
[6] = 0.01% in ointment, observation time 8 hours
[7] = 0.1% in ointment, observation time 1 hour
[8] = 0.1% in ointment, observation time 4 hours
[9] = 0.1% in ointment, observation time 8 hours

CCN1CCN(Cc2nc3ccccc3n2Cc2ccccc2O)CC1 [III, 2-(4-Ethyl-1-piperazinyl)-methyl-1-(2-hydroxybenzyl)-benzimidazole]
vasoconstriction (color value; normal skin = 100, untreated stripped skin = 0) [1]: 15
vasoconstriction (color value; normal skin = 100, untreated stripped skin = 0) [2]: 15
vasoconstriction (color value; normal skin = 100, untreated stripped skin = 0) [3]: 20
vasoconstriction (color value; normal skin = 100, untreated stripped skin = 0) [4]: 35
vasoconstriction (color value; normal skin = 100, untreated stripped skin = 0) [5]: 55
vasoconstriction (color value; normal skin = 100, untreated stripped skin = 0) [6]: 55
vasoconstriction (color value; normal skin = 100, untreated stripped skin = 0) [7]: 45
vasoconstriction (color value; normal skin = 100, untreated stripped skin = 0) [8]: 80
vasoconstriction (color value; normal skin = 100, untreated stripped skin = 0) [9]: 85

C[C@@H]1C[C@H]2[C@@H]3C[C@H](F)C4=CC(=O)C=C[C@]4(C)[C@H]3[C@@H](O)C[C@]2(C)[C@H]1C(=O)CO [II, 6 α-Fluoro-11β,21-dihydroxy-16α-methyl-1,4-pregnadiene-3,20-dione]
vasoconstriction (color value; normal skin = 100, untreated stripped skin = 0) [1]: 20
vasoconstriction (color value; normal skin = 100, untreated stripped skin = 0) [2]: 50
vasoconstriction (color value; normal skin = 100, untreated stripped skin = 0) [3]: 60
vasoconstriction (color value; normal skin = 100, untreated stripped skin = 0) [4]: 15
vasoconstriction (color value; normal skin = 100, untreated stripped skin = 0) [5]: 65
vasoconstriction (color value; normal skin = 100, untreated stripped skin = 0) [6]: 85
vasoconstriction (color value; normal skin = 100, untreated stripped skin = 0) [7]: 35
vasoconstriction (color value; normal skin = 100, untreated stripped skin = 0) [8]: 75
vasoconstriction (color value; normal skin = 100, untreated stripped skin = 0) [9]: 85

CCN1CCN(Cc2nc3ccccc3n2Cc2ccc(Cl)cc2)CC1 [IV, 2-(4-Ethyl-1-piperazinyl)-methyl-1-(4-chlorobenzyl)-benzimidazole]
vasoconstriction (color value; normal skin = 100, untreated stripped skin = 0) [1]: 25
vasoconstriction (color value; normal skin = 100, untreated stripped skin = 0) [2]: 65
vasoconstriction (color value; normal skin = 100, untreated stripped skin = 0) [3]: 95
vasoconstriction (color value; normal skin = 100, untreated stripped skin = 0) [4]: 30
vasoconstriction (color value; normal skin = 100, untreated stripped skin = 0) [5]: 85
vasoconstriction (color value; normal skin = 100, untreated stripped skin = 0) [6]: 100

Clc1ccc(Cn2c(CN3CCCC3)nc3ccccc32)cc1 [I, 1-4'Chlorobenzyl-2-pyrrolidinomethyl-benzimidazole]
vasoconstriction (color value; normal skin = 100, untreated stripped skin = 0) [4]: 18
vasoconstriction (color value; normal skin = 100, untreated stripped skin = 0) [5]: 31
vasoconstriction (color value; normal skin = 100, untreated stripped skin = 0) [6]: 33
vasoconstriction (color value; normal skin = 100, untreated stripped skin = 0) [7]: 18
vasoconstriction (color value; normal skin = 100, untreated stripped skin = 0) [8]: 35
vasoconstriction (color value; normal skin = 100, untreated stripped skin = 0) [9]: 45

Source: patent US4011322A, “Benzimidazole derivatives and process for the production thereof” (Schering Aktiengesellschaft, priority 1974, dated 1977)
